# Measurements reported in PMC8706783 (Pharmaceutics, 2021).
# Legend:
# [1] = test system: CYP3A4 mRNA; design: method as in PMID 23965226; conditions: 10 μM DPV, colorectal tissue from three human donors; cited from earlier work
# [2] = test system: CYP1A2 mRNA; design: method as in PMID 23965226; conditions: 10 μM DPV, colorectal tissue from three human donors; cited from earlier work
# [3] = test system: HLM (Phase 1); assay: Reaction phenotyping, HLM with NADPH; assay type: in vitro ADME, human
# [4] = biological target: T1, UGT2B7 (Homo sapiens, UniProt P16662); assay: Enzyme inhibition assay, UGT2B7; assay type: in vitro ADME; design: from tissue; conditions: HLM; UGT2B7 zidovudine glucuronidation
# T1 sequence (P16662 24-529): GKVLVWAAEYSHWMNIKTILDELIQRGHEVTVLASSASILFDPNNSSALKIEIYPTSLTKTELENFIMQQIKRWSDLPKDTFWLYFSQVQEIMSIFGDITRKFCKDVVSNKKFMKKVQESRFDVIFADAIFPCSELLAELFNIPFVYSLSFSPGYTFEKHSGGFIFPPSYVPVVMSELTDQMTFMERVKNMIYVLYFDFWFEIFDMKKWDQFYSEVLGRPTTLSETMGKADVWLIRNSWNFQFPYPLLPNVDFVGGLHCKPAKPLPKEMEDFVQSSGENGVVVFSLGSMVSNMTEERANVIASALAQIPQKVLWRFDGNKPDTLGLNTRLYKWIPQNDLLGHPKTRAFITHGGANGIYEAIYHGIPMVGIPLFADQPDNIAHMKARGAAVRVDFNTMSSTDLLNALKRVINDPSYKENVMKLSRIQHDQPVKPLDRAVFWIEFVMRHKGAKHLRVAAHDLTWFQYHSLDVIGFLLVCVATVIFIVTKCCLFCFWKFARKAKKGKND
# [5] = biological target: T2, CYP2B6 (Homo sapiens, UniProt P20813); assay: Enzyme inhibition assay, CYP2B6; assay type: in vitro ADME
# T2 construct: tissue Xenotech LLC; host or cells: human liver microsomes, mixed-gender 50 donor pool
# T2 sequence (P20813 whole entry): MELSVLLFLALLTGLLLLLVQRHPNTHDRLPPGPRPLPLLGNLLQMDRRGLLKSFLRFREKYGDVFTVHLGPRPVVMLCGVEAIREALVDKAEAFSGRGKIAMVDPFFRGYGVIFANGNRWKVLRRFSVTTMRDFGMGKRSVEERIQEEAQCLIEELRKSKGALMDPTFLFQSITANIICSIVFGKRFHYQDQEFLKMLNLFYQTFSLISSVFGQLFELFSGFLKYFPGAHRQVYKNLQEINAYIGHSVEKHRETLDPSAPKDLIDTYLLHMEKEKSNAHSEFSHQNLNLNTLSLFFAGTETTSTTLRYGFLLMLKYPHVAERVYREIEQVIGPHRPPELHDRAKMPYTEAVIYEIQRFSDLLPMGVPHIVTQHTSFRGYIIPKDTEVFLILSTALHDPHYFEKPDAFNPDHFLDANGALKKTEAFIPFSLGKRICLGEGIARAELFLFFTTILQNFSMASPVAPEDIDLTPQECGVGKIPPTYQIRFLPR
structure (smiles),measurement,setting,value
"Cc1cc(C)c(Nc2ccnc(Nc3ccc(C#N)cc3)n2)c(C)c1 [DPV, Dapivirine]",CYP3A4 mRNA change,[1],induction in two donors
same,CYP1A2 mRNA change,[2],induction in one donor
same,% DPV Remaining at 60 min without MIC,[3]; 10 μM DPV,37.14%
same,% DPV Remaining at 60 min with MIC,[3]; 10 μM DPV and 30 μM MIC,88.39%
same,IC50,[4],17.2 µM
same,IC50,[5],10.1 µM
